Test results: patent publication US4593104A, “2-halo-N-(azole-1-yl-methyl)-substituted acetanilides” (BASF Aktiengesellschaft, priority 1976, dated 1986)

Legend:
Glyc. max = assay: tolerance by various oil crops in the greenhouse (Table 8), % damage; format: in vivo, Glycine max; settings: varieties: Dare, Lee 68, SRF 450
Description: (§1) The vessels employed were plastic flowerpots having a volume of 300 cm^3; the substrate was a sandy loam containing about 1.5% humus. The seeds of the test plants (see Table 1) were sown shallow, and separated according to species. In the case of Cyperus esculentus, pregerminated tubers were planted. In the preemergence treatment, the active ingredients were then immediately applied to the surface of the soil. They were suspended or emulsified in water as the vehicle, and sprayed through atomizing nozzles. After the agents had been applied, the vessels were lightly sprinkler-irrigated to set germination and growth going, and to activate the chemical agents. The vessels were then covered with transparent plastic hoods until the plants had taken root. This cover ensured uniform germination of the test plants (to the extent that this was not impaired by the chemicals), and prevented readily volatile substances from evaporating.
(§2) For postemergence treatment, the plants were first grown to a height of from 3 to 10 cm, depending on their habit, before treated. Hoods were not placed on the pots. The experiments were set up in the greenhouse, hotter areas (25° to 40° C.) being preferred for heat-loving species, and 15° to 30° C. for plants from moderate climates. The experiments were carried out for from 4 to 6 weeks. During this period the plants were tended and their reaction to the various treatments was assessed. The following tables contain the substances investigated, the application rates in kg/ha of active ingredient, and the test plant species. Assessments were made on a 0 to 100 scale, 0 denoting no damage or normal emergence, and 100 denoting no emergence or complete destruction of at least the visible plant parts.

Brassica napus [1] = assay: as above; format: in vivo
Description: as §1, §2

Solan. nigrum. = assay: herbicidal action in the greenhouse (Table 8), % damage; format: in vivo
Description: as §1, §2

Seta. spp. = assay: as above; format: in vivo
Description: as §1, §2

Amar. retro. = assay: as above; format: in vivo
Description: as §1, §2

Arach. hypog. [2] = assay: tolerance by various oil crops in the greenhouse (Table 8), % damage; format: in vivo, Arachis hypogaea
Description: as §1, §2

Carth. tinct. = assay: as above; format: in vivo, Carthamus tincotius
Description: as §1
For postemergence treatment, the plants were first grown to a height of from 3 to 10 cm, depending on their habit, before treated. Hoods were not placed on the pots. The experiments were set up in the greenhouse, hotter areas (25° to 40° C.) being preferred for heat-loving species, and 15° to 30° C. for plants from moderate climates. […] During this period the plants were tended and their reaction to the various treatments was assessed. […]

Alopec. myosur. = assay: preemergence treatment in the greenhouse, % damage; format: in vivo; settings: 0.5 kg/ha
Summary of the method: (§3)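 Damage rated on a 0 (none) to 100 (no emergence or total destruction) scale over 4–6 weeks in the greenhouse (15–30 °C or 25–40 °C by species), at rates in kg/ha a.i. Pre-emergence sprays went onto sandy-loam surface right after sowing, pots then watered and hooded; post-emergence sprays hit unhooded plants at 3–10 cm.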

Cyp. diff. = assay: preemergence treatment in the greenhouse, % damage; format: in vivo; settings: 0.5 kg/ha
Summary of the method: as §3

Setaria spp. = assay: preemergence treatment in the greenhouse, % damage; format: in vivo; settings: 0.5 kg/ha
Summary of the method: as §3

Solanum nigrum = assay: preemergence treatment in the greenhouse, % damage; format: in vivo; settings: 0.5 kg/ha
Summary of the method: as §3

Echin. c.g. = assay: preemergence treatment in the greenhouse, % damage; format: in vivo; settings: 0.5 kg/ha
Summary of the method: as §3

Brassica napus [3] = assay: preemergence treatment in the greenhouse, % damage; format: in vivo; settings: 0.5 kg/ha
Summary of the method: as §3

Matric. spp. = assay: preemergence treatment in the greenhouse, % damage; format: in vivo; settings: 0.5 kg/ha
Summary of the method: as §3

Zea mays = assay: preemergence treatment in the greenhouse, % damage; format: in vivo; settings: 0.5 kg/ha
Summary of the method: as §3

Bromus spp. = assay: preemergence treatment in the greenhouse, % damage; format: in vivo; settings: 0.5 kg/ha
Summary of the method: as §3

Arach. hypog. [4] = assay: preemergence treatment in the greenhouse, % damage; format: in vivo, Arachis hypogaea; settings: 0.5 kg/ha
Description: as §1, §2

Cc1cccc(C)c1N(Cn1cncn1)C(=O)CCl [Compound 127]
% damage (Glyc. max; 0,5 kg/ha): 0% | % damage (Glyc. max; 1,0 kg/ha): 0% | % damage (Glyc. max; 2,0 kg/ha): 0% | % damage (Brassica napus [1]; 0,5 kg/ha): 0% | % damage (Brassica napus [1]; 1,0 kg/ha): 0% | % damage (Brassica napus [1]; 2,0 kg/ha): 0% | % damage (Solan. nigrum.; 0,5 kg/ha): 70% | % damage (Solan. nigrum.; 1,0 kg/ha): 90% | % damage (Solan. nigrum.; 2,0 kg/ha): 100% | % damage (Seta. spp.; 0,5 kg/ha): 95% | % damage (Seta. spp.; 1,0 kg/ha): 100% | % damage (Seta. spp.; 2,0 kg/ha): 100% | % damage (Amar. retro.; 0,5 kg/ha): 82% | % damage (Amar. retro.; 1,0 kg/ha): 95% | % damage (Amar. retro.; 2,0 kg/ha): 100% | % damage (Arach. hypog. [2]; 0,5 kg/ha): 0% | % damage (Arach. hypog. [2]; 1,0 kg/ha): 0% | % damage (Arach. hypog. [2]; 2,0 kg/ha): 10% | % damage (Carth. tinct.; 0,5 kg/ha): 0% | % damage (Carth. tinct.; 1,0 kg/ha): 0%

COc1cc(C)n(CN(C(=O)CCl)c2c(C)cccc2C)n1
% damage (Alopec. myosur.): 95% | % damage (Cyp. diff.): 100% | % damage (Setaria spp.): 98% | % damage (Solanum nigrum): 85% | % damage (Echin. c.g.): 90% | % damage (Brassica napus [3]): 5% | % damage (Matric. spp.): 95% | % damage (Zea mays): 20% | % damage (Bromus spp.): 95% | % damage (Arach. hypog. [4]): 0%
